# Reference: patent US20130345234A1, “FGFR AND LIGANDS THEREOF AS BIOMARKERS FOR BREAST CANCER IN HR POSITIVE SUBJECTS” (priority 2011, published 2013)
# Columns and labels:
# [1] = Phase 2 trial of dovitinib: adverse events; assay type: in vivo, human; conditions: as of January 2011
# Protocol: Patient selection was performed according to FISH/CISH for FGFR1 (cut-off≧6 gene copies). […] The primary endpoint was RECIST best overall response rate in pts with measurable disease per external radiology review.
# Inclusion Criteria: • 1. Patients have histological confirmation of breast carcinoma with a clinical diagnosis of IBC based on presence of inflammatory changes in the involved breast, including diffuse erythema and edema (peau d orange), with or without an underlying palpable mass involving the majority of the skin of the breast. Pathological evidence of dermal lymphatic invasion should be noted but is not required for diagnosis. • 2. Patients have stage IV disease with local or distant relapse • 3. Patients have negative HER2 expression by IHC (defined as 0 or 1+), or FISH (fluorescence in situ hybridization). If HER2 is 2+, negative HER2 expression must be confirmed by FISH. • 4. Patients are able to swallow and retain oral medication. • 5. Patients have ECOG performance status 0-2. • 6. Patients have received up to 3 standard chemotherapies for metastatic disease and have relapsed. • 7. Patients have ability and willingness to sign written informed consent. • 8. Patients are 18 years of age or older. • 9. Female patients of childbearing potential (A person not free from menses>2 years or not surgically sterilized) must be willing to use two adequate barrier methods of contraception to prevent pregnancy or agree to abstain from heterosexual activity throughout the study. • 10. Female patients of childbearing potential must have negative serum pregnancy test. • 11. If Patients have been treated with anti-VEGF agents, such as Bevacizumab, last dose must be >4 weeks. • 12. Patients have biopsy tissue of the metastatic disease (including chest wall or regional nodes) available (paraffin blocks or up to 20 unstained slides), if no biopsy tissue available, a biopsy (or thoracentesis if patient has pleural effusion only) of the metastatic disease will be performed to confirm the diagnoses.
# Exclusion Criteria: • 1. Patients are receiving concurrent anti-cancer therapy (chemotherapy, immunotherapy, radiation therapy and biological therapy) while taking study medication. • 2. Abnormal liver functions consisting of any of the following: a) Serum bilirubin>/=1.5×ULN, b) AST and ALT>/=2.5×ULN, (for patients with known liver metastasis, AST and ALT</=5×ULN is allowed), ANC<1.5. • 3. Patients have an active infection and require IV or oral antibiotics. • 4. Impaired cardiac function or clinically significant cardiac diseases, including any of the following: a) History or presence of serious uncontrolled ventricular arrhythmias or presence of atrial fibrillation; b) Clinically significant resting bradycardia (<50 beats per minute); c) LVEF<45% assessed by 2-D echocardiogram (ECHO) or Multiple gated acquisition scanning (MUGA); d) Any of the following within 6 months prior to study entry: myocardial infarction (MI), severe/unstable angina, Coronary Artery Bypass Graft (CABG), Congestive Heart Failure (CHF), Cerebrovascular Accident (CVA), Transient Ischemic Attack (TIA), Pulmonary Embolism (PE); e) Uncontrolled hypertension defined by an SBP>150 and/or a DBP>100 mm Hg with or without anti-hypertensive medication. • 5. History of gastrointestinal disorders (medical disorders or extensive surgery) which may interfere with the absorption of the study drug. • 6. Patients have a concurrent disease or condition that would make them inappropriate for study participation, or any serious medical disorder that would interfere with patients' safety. • 7. Patients with only locally or regionally confined disease without evidence of metastatic disease.
# tumor xenograft models = assay: Antitumor activity in tumor xenograft models in athymic mice; assay type: in vivo; conditions: administered orally, all models tested
# Protocol: (§1) Inhibition was observed up to 24 hours in certain models.
# breast cancer cells = assay: Model of disseminated disease: liver colonization from a subcutaneous xenograft primary; assay type: in vivo; conditions: mice; subcutaneous (SC) xenograft primary; oral treatment
# Protocol: as §1
# [2] = system: FGFR downstream-signaling proteins AKT and ERK; assay: Tyrosine phosphorylation of FGFR downstream-signaling proteins in xenograft tumors; assay type: in vivo, mice; conditions: following a single oral dose
# Protocol: as §1
structure (smiles),measurement,setting,value
"CN1CCN(c2ccc3nc(-c4c(N)c5c(F)cccc5[nH]c4=O)[nH]c3c2)CC1 [dovitinib, 4-amino-5-fluoro-3-[6-(4-methylpiperazin-1-yl)-1H-benzimidazol-2-yl]-1H-quinolin-2-one]","adverse event: asthenia, Group 3",[1]; Group 3,17%
same,"adverse event: diarrhea, Group 3",[1]; Group 3,6%
same,"adverse event: nausea, Group 3",[1]; Group 3,5%
same,adverse event: vomiting,"[1]; all grades, 77 patients with data, 500 mg once daily, 5-day on/2-day off",75%
same,adverse event: asthenia,[1]; all grades,61%
same,adverse event: diarrhea,[1]; all grades,72%
same,adverse event: nausea,[1]; all grades,62%
same,"adverse event: vomiting, grade 3 [Group 3]",[1]; grade 3,6%
same,antitumor activity in tumor xenograft models,tumor xenograft models,"anti-tumor responses, ranging from growth inhibition and stasis to regression"
same,colonization of breast cancer cells in the livers,breast cancer cells,significantly reduced
same,duration of inhibition of AKT and ERK phosphorylation,[2]; certain models,up to 24 hours
same,tyrosine phosphorylation of AKT and ERK,[2]; xenograft tumors,inhibited
